Reference: patent US20210121435A1, “METHODS FOR TREATING SEIZURES IN EPILEPSY WITH A COMPOSITION COMPRISING CANNABINOIDS” (MEDRELEAF CORP., priority 2019, published 2021)
Where two headings read alike, the source gives them in different places.

Legend:
[1] = test system: seizures; details: after 3 months of treatment; TSC and treatment-resistant epilepsy; cited from earlier work
[2] = cited from earlier work
[3] = test system: seizures; details: cited from earlier work; for median reduction (seizures): at 12 weeks
[4] = test system: seizures; details: of the 7 participants who received CBD; temporal-lobe epilepsy; cited from earlier work
[5] = Pharmacokinetics of orally administered CBD; format: in vivo, human; details: oral; 4 to 5 times the half-life
Text: The half-life of CBD, administered orally, may be about […]. A steady state is may be reached about 10 days after regular dosing begins (i.e., 4 to 5 times the half-life). As such, with a 4 week treatment period all patients may achieve a steady state of CBD blood concentration.

[6] = Toxicity assessment of kindled rats before stimulation (Loscher ataxia scale); format: in vivo, rat; details: IP
Procedure: Before each round of drug testing stimulation, the rats were assessed for motor toxicity using the Loscher ataxia scale. This scale is used to determine motor impairment. The scale rankings are as follows: Stage 1—slight ataxia in hind legs, no decrease in abdominal muscle tone; Stage 2—more pronounced ataxia, slight decrease in abdominal muscle tone, flat body position; Stage 3—increased ataxia, continued decrease in abdominal muscle tone, more pronounced flat body posture, splayed hind legs, and crawling during forward motion; Stage 4—marked ataxia, loss of balance during forward motion, loss of abdominal muscle tone, flat body posture, splayed hind legs, and dragging during forward motion; Stage 5—very marked ataxia, frequent loss of balance during forward motion, loss of abdominal muscle tone.

[7] = test system: mice; details: intraperitoneally or orally; cited from earlier work
[8] = test system: Amygdala kindled rats (generalized and focal seizures); test: Seizure suppression in amygdala kindled rats; format: in vivo, rat; details: IP; for suppression of focal seizures: suppressed = absence of EEG seizure activity lasting more than 4 seconds, FIGS. 1B, 2B; for suppression of generalized seizures: suppressed = absence of stage 3 or higher seizure (Racine scale), FIGS. 1A, 2A
Procedure: Preclinical studies were performed to study the effects of CBD or THC alone, or CBD in combination with THC, on seizures. Amygdala kindled rats were used as a model for generalized and focal seizures in these studies.
Kindling Procedure: An insulated bipolar electrode was implanted in the right basolateral amygdala of male Sprague Dawley rats (50-55 days old). Two weeks following implantation, the rats began daily kindling. The stimulation used for kindling was a 1 second train of biphasic 60 Hz square wave pulses at an intensity of 400 micro-amps, once per day. Both the focal afterdischarge (AD) and convulsive behavior were monitored for a minimum of 30 seconds after stimulation or until an observed seizure ended. Rats were stimulated once daily until ten stage 5 Racine scale seizures have been generated, after which they are considered fully kindled (typically 3-4 weeks).
Seizure Scoring: The focal seizures were defined by observing the afterdischarge (AD) recorded by electroencephalogram (EEG) via the implanted electrode. The focal AD can last as long as 1-2 minutes post stimulation. The focal AD is not necessarily accompanied by a secondary generalized motor seizure, especially early in the kindling process. Early behavioural signs may include the cessation of behaviour or blinking. After sufficient kindling has been induced, generalized motor events of seizure generalization began to occur. These events were rated using the Racine scale. The stages are as follows: Stage 1—facial clonus; Stage 2—head nodding; Stage 3—forelimb clonus; Stage 4—forelimb clonus and rearing on hindlimbs; Stage 5—loss of postural control (rearing and following over).
Seizure Threshold Testing: Two days after the 10th stage 5 seizure was recorded, the animal's seizure threshold was tested using ascending series technique. The process was started at an intensity of 20 micro-amps, which was increased by 20 micro-amps every two minutes until an AD was produced. The seizure threshold is defined as the current needed to produce the AD.
Stability Testing: After seizure thresholds were determined, the animals underwent stability testing to confirm the reliability of the threshold. The animals were stimulated at 25% above the determined threshold 3 times per week for 2 weeks. If seizures were consistently evoked at this level of stimulation, the rat was considered stable. […]
The effects of: a) CBD alone (0, 20, 40, 80, 160, 320 mg/kg; 10 subjects per dose); b) THC alone (0, 5, 10, 20, 40, 80 mg/kg; 10 subjects per dose); or c) CBD+THC (15:1) (CBD dose of 0, 20, 40, 80, 160, 320 mg/kg; 10 subjects per dose), were tested. […] A generalized seizure was considered to be suppressed if there was an absence of stage 3 or higher seizure, assessed using the Racine scale. […]

[9] = test system: convulsive seizures; details: participants with Dravet Syndrome and drug-resistant seizures; cited from earlier work
[10] = in vivo; cited from earlier work

Structure (SMILES) | median percent change in total weekly seizure frequency [1] [%] | safety and tolerability in clinical trials ([2]; human, in vivo) | doses for which no significant adverse effects have been reported ([2]; p.o.) | median reduction (seizures) ([3]; patients with DS) [%] | participants free of seizures in the last four weeks of treatment ([3]; patients with DS) [participants] | median reduction (seizures) ([3]; patients with LGS) [%] | participants free of seizures in the last four weeks of treatment ([3]; patients with LGS) [participant] | participants seizure free during treatment [4] | time to steady state after regular dosing begins [5] | doses with no observed toxic effects [6] | dose-response of therapeutic benefits (anti-inflammatory and anti-nociceptive) [7] | suppression of focal seizures [8] | suppression of generalized seizures [8] | frequency of occurrence of convulsive seizures [9] | patients who became seizure free [9] | doses at which psychotoxicity was observed [6] | dose at which there may be psychotropic effects [10] [mg]
C=C(C)[C@@H]1CCC(C)=C[C@H]1c1c(O)cc(CCCCC)cc1O [CBD, cannabidiol] | −48.8 | safe and well tolerated across a wide dosage range | up to 1500 mg/day | 49.8 | 4 | 36.8 | 1 | 4 | about 10 days | up to 320 mg/kg | bell-shaped dose-response | suppress some generalized and focal seizures | suppress some generalized and focal seizures | significantly reduced | about 5% | – | –
CCCCCc1cc(O)c2c(c1)OC(C)(C)[C@@H]1CCC(C)=C[C@@H]21 [THC, Δ^9-tetrahydrocannabinol] | – | – | – | – | – | – | – | – | – | – | – | suppress some generalized and focal seizures | suppress some generalized and focal seizures | – | – | above 10 mg/kg | 10
